Data reported in ChEMBL document CHEMBL1221212, “Small-molecule activation of neuronal cell fate” (Nat Chem Biol, 2008).
Activity calls are given as the source filed them. The rule behind the calls is not given here.

Key:
[1] = system: HCN; experiment: Induction of rat HCN cell differentiation assessed as induction of neuronal reporter neuroD activity at 20 uM after 24 hrs by luciferase reporter gene assay; format: functional, cell-based
[2] = system: HCN; experiment: Induction of rat HCN cell differentiation assessed as induction of neuronal reporter neuroD activity by luciferase reporter gene assay; format: functional, cell-based
[3] = system: P19CL6; experiment: Induction of mouse C57BL/6 P19CL6 cell differentiation assessed as induction of neuronal reporter neuroD activity by luciferase reporter gene assay; format: functional, cell-based
[4] = target: T1, Glutamate NMDA receptor (Rattus norvegicus) (UniProt P35439+Q00959+Q00960+Q00961+Q62645+Q8VHN2+Q9R1M7); experiment: Induction of NMDA receptor-mediated neuroD gene expression in rat HCN cells at 50 uM after 24 hrs by RT-PCR analysis in presence of NMDA receptor antagonist nifedipine; format: functional, cell-based
[5] = system: HCN; experiment: Induction of rat HCN cell differentiation assessed as increase in neuroD gene expression after 3 hrs by RT-PCR analysis; format: functional, cell-based
[6] = system: HCN; experiment: Induction of neurogenesis in undifferentiated rat HCN cells assessed as MAP2AB protein level at 8 to 64 uM after 9 hrs by protein blotting analysis; format: functional, cell-based
[7] = Induction of rat HCN cell differentiation assessed as upregulation of MEF2A expression after 2 to 4 days by protein blotting analysis; format: functional, cell-based
[8] = system: HCN; experiment: Induction of LIF/BMP2-mediated rat HCN cell differentiation into Tuj1 neurons after 4 days; format: functional, cell-based
[9] = target: T1, Glutamate NMDA receptor (Rattus norvegicus); experiment: Induction of NMDA receptor-mediated neuroD gene expression in rat HCN cells at 50 uM after 3 hrs by RT-PCR analysis in presence of NMDA receptor antagonist MK801; format: functional, cell-based
[10] = target: T1, Glutamate NMDA receptor (Rattus norvegicus); experiment: Induction of NMDA receptor-mediated Ca2+ influx in rat HCN cells at 5 uM by Fura-2 imaging analysis in presence of NMDA receptor antagonist MK801; format: functional, cell-based
[11] = system: Neuronal progenitor cell; experiment: Induction of mouse progenitor cell differentiation into Map2ab-positive neurons at 20 uM after 4 days; format: functional, cell-based
[12] = system: HCN; experiment: Effect on subcellular distribution of MEF2A protein in rat HCN cells after 5 days; format: functional, cell-based
[13] = system: P19CL6; experiment: Induction of C57BL/6 mouse P19CL6 cell differentiation at 50 uM after 4 days; format: functional, cell-based
[14] = system: HCN; experiment: Induction of HDAC5 translocation in nucleus of rat HCN cells assessed as GFP-HDAC5 fusion protein accumulation at 20 uM by fluorescence assay; format: functional, cell-based
[15] = system: HCN; experiment: Induction of rat HCN cell differentiation into Tuj1 neurons at 20 uM after 4 days in presence of caspase inhibitor Q-VD-Oph; format: functional, cell-based
[16] = system: HCN; experiment: Induction of CAMK-mediated MREx3 activity in rat HCN cells by luciferase reporter gene assay in presence of 200 nM PKC inhibitor Go6976; format: cell-based
[17] = system: HCN; experiment: Induction of rat HCN cell differentiation assessed as increase in GluR2 gene expression after 3 hrs by RT-PCR analysis; format: functional, cell-based
[18] = system: HCN; experiment: Effect on subcellular distribution of MEF2C protein in rat HCN cells after 5 days; format: functional, cell-based
[19] = Induction of rat HCN cell differentiation assessed as upregulation of MEF2C expression after 2 to 4 days by protein blotting analysis; format: functional, cell-based
[20] = system: Neuronal progenitor cell; experiment: Induction of mouse progenitor cell differentiation into Tuj1 neurons at 20 uM after 4 days; format: functional, cell-based
[21] = system: HCN; experiment: Induction of neurogenesis in undifferentiated rat HCN cells assessed as MEF2A protein level at 8 to 64 uM after 9 hrs by protein blotting analysis; format: functional, cell-based
[22] = system: HCN; experiment: Induction of rat HCN cell differentiation assessed as increase in Tuj1 gene expression after 3 hrs by RT-PCR analysis; format: functional, cell-based
[23] = target: T1, Glutamate NMDA receptor (Rattus norvegicus); experiment: Induction of NMDA receptor-mediated neuroD gene expression in rat HCN cells at 50 uM after 3 hrs by RT-PCR analysis in presence of NMDA receptor antagonist nifedipine; format: functional, cell-based
[24] = system: HCN; experiment: Induction of L-type calcium channel/NMDA receptor-mediated Ca2+ influx in rat HCN cells at 5 uM by Fura-2 imaging analysis; format: cell-based
[25] = system: HCN; experiment: Induction of rat HCN cell differentiation assessed as induction of induction of MREx3 gene expression by luciferase reporter gene assay; format: functional, cell-based
[26] = system: HCN; experiment: Induction of L-type calcium channel/NMDA receptor-mediated Ca2+ influx in rat HCN cells at 5 uM by Fura-2 imaging analysis in presence of multiple of inhibitors; format: cell-based
[27] = system: P19CL6; experiment: Induction of mouse C57BL/6 P19CL6 cell differentiation assessed as induction of neuronal reporter gluR2 expression by luciferase reporter gene assay; format: functional, cell-based
[28] = system: HCN; experiment: Induction of CAMK-mediated MREx3 activity in rat HCN cells by luciferase reporter gene assay in presence of 2.5 uM CAMK inhibitor KN93; format: cell-based
[29] = system: HCN; experiment: Induction of neurogenesis in undifferentiated rat HCN cells assessed as MEF2C protein level at 8 to 64 uM after 9 hrs by protein blotting analysis; format: functional, cell-based
[30] = system: HCN; experiment: Induction of L-type calcium channel/NMDA receptor-mediated neuroD gene expression in rat HCN cells at 50 uM after 24 hrs by RT-PCR analysis in presence of multiple inhibitors; format: cell-based
[31] = Cytotoxicity in rat HCN cells at 20 uM after 4 days; format: cell-based; conditions: 96 h
[32] = system: HCN; experiment: Induction of rat HCN cell differentiation assessed as increase in GluR2 gene expression after 1 day by RT-PCR analysis; format: functional, cell-based
[33] = system: HCN; experiment: Induction of rat HCN cell differentiation assessed as increase in Tuj1 gene expression after 3 days by RT-PCR analysis; format: functional, cell-based
[34] = system: HCN; experiment: Induction of HDAC5 phosphorylation in rat HCN cells after 24 hrs; format: functional, cell-based
[35] = system: HCN; experiment: Effect on subcellular distribution of CREB protein in rat HCN cells after 5 days; format: functional, cell-based
[36] = target: T1, Glutamate NMDA receptor (Rattus norvegicus); experiment: Induction of NMDA receptor-mediated neuroD gene expression in rat HCN cells at 50 uM after 24 hrs by RT-PCR analysis in presence of NMDA receptor antagonist MK801; format: functional, cell-based
[37] = system: HCN; experiment: Induction of rat HCN cell differentiation assessed as increase in Tuj1 gene expression after 1 day by RT-PCR analysis; format: functional, cell-based
[38] = system: HCN; experiment: Induction of L-type calcium channel/NMDA receptor-mediated neuroD gene expression in rat HCN cells at 50 uM after 3 hrs by RT-PCR analysis in presence of multiple inhibitors; format: cell-based
[39] = system: HCN; experiment: Induction of HDAC5 phosphorylation in rat HCN cells after 6 hrs; format: functional, cell-based
[40] = system: HCN; experiment: Induction of rat HCN cell differentiation assessed as increase in GluR2 gene expression after 3 days by RT-PCR analysis; format: functional, cell-based
[41] = system: HCN; experiment: Induction of CAMK2 phosphorylation in rat HCN cells by Western blot analysis in presence of 2.5 uM CAMK inhibitor KN93; format: cell-based
[42] = system: HCN; experiment: Induction of rat HCN cell differentiation assessed as increase in neuroD gene expression after 1 day by RT-PCR analysis; format: functional, cell-based
[43] = target: T1, Glutamate NMDA receptor (Rattus norvegicus); experiment: Induction of NMDA receptor-mediated Ca2+ influx in rat HCN cells in presence of NMDA receptor antagonist MK801; format: functional, cell-based
[44] = system: HCN; experiment: Induction of CAMK-mediated HDAC5 phosphorylation in rat HCN cells by Western blot analysis in presence of 2.5 uM CAMK inhibitor KN93; format: cell-based
[45] = system: HCN; experiment: Induction of rat HCN cell differentiation assessed as increase in NR1 gene expression after 1 day by RT-PCR analysis; format: functional, cell-based
[46] = system: HCN; experiment: Induction of LIF/BMP2-mediated rat HCN cell differentiation into GFAP-positive astrocytes after 4 days; format: functional, cell-based
[47] = Induction of rat HCN cell differentiation assessed as upregulation of MEF2D expression after 2 to 4 days by protein blotting analysis; format: functional, cell-based
[48] = Induction of rat HCN cell proliferation at 20 uM after 20 days by BrdU incorporation assay; format: functional
[49] = system: HCN; experiment: Induction of rat HCN cell differentiation assessed as increase in neuroD gene expression after 3 days by RT-PCR analysis; format: functional, cell-based
[50] = system: HCN; experiment: Induction of rat HCN cell differentiation assessed as increase in p27Kip1 gene expression after 9 days by RT-PCR analysis; format: functional, cell-based
[51] = system: HCN; experiment: Induction of L-type calcium channel/NMDA receptor-mediated Ca2+ influx in rat HCN cells; format: cell-based
[52] = system: HCN; experiment: Induction of rat HCN cell differentiation assessed as increase in NR1 gene expression after 3 days by RT-PCR analysis; format: functional, cell-based
[53] = species: Rattus norvegicus; experiment: Induction of rat HCN differentiation into Tuj1 neurons at 25 uM after 4 days; format: functional
[54] = system: HCN; experiment: Induction of rat HCN cell differentiation assessed as increase in MAP2AB gene expression after 9 days by RT-PCR analysis; format: functional, cell-based
[55] = system: HCN; experiment: Induction of HDAC5 translocation in nucleus of rat HCN cells assessed as GFP-HDAC5 S258A S498A mutant fusion protein accumulation at 5 uM by fluorescence assay; format: functional, cell-based
[56] = system: HCN; experiment: Induction of L-type calcium channel/NMDA receptor-mediated Ca2+ influx in rat HCN cells in presence multiple inhibitors; format: cell-based
[57] = system: HCN; experiment: Induction of HDAC5 translocation in cytoplasm of rat HCN cells assessed as phosphorylated HDAC5 accumulation; format: functional, cell-based
[58] = system: HCN; experiment: Inhibition of gliogenesis differentiation in rat HCN cells at 25 uM after 4 days; format: functional, cell-based
[59] = system: HCN; experiment: Induction of neurogenesis in undifferentiated rat HCN cells assessed as GlR2/3 protein level at 8 to 64 uM after 9 hrs by protein blotting analysis; format: functional, cell-based
[60] = system: HCN; experiment: Induction of rat HCN cell differentiation assessed as increase in DCX gene expression after 9 days by RT-PCR analysis; format: functional, cell-based
[61] = system: HCN; experiment: Induction of rat HCN cell differentiation assessed as increase in neuroD gene expression at 10 uM after 3 hrs by RT-PCR analysis; format: functional, cell-based
[62] = system: HCN; experiment: Induction of rat HCN cell differentiation assessed as increase in NR1 gene expression after 3 hrs by RT-PCR analysis; format: functional, cell-based
[63] = system: Neuronal progenitor cell; experiment: Induction of mouse neuronal progenitor cell differentiation at 25 uM after 4 days; format: functional, cell-based
[64] = system: HCN; experiment: Inhibition of LIF/BMP2-mediated rat HCN cell differentiation into astrocytes at 25 uM; format: functional, cell-based
[65] = system: HCN; experiment: Induction of rat HCN cell differentiation assessed as increase in beta-TUB3 gene expression after 9 days by RT-PCR analysis; format: functional, cell-based
[66] = system: HCN; experiment: Induction of CAMK-mediated MREx3 activity in rat HCN cells by luciferase reporter gene assay in presence of 2.5 uM potassium channel inhibitor KN92; format: cell-based

O=C(NC1CCCC1)c1cc(-c2cccs2)on1
Activity [1]: Active
Activity [2]: Dose-dependent effect

C=CCNC(=O)c1cc(-c2cccs2)on1
Activity [3]: Dose-dependent effect

O=C(NC1CC1)c1cc(-c2cccs2)on1
Activity [4]: Active
Activity [5]: Active
Activity [6]: Active
Activity [7]: inactive
Activity [8]: Active
Activity [1]: Active
Activity [9]: Active
Activity [10]: Active
Activity [11]: Active
Activity [12]: inactive
Activity [13]: Active
Activity [14]: Active
Activity [15]: Active
Activity [16]: Active
Activity [17]: Active
Activity [18]: inactive
Activity [19]: Active
Activity [20]: Active
Activity [21]: inactive
Activity [22]: Active
Activity [23]: Active
Activity [24]: Active
Activity [25]: Dose-dependent effect
Activity [26]: Active
Activity [27]: Dose-dependent effect
Activity [28]: inactive
Activity [29]: inactive
Activity [30]: Active
Activity [31]: 18%
Activity [32]: Active
Activity [33]: Active
Activity [34]: Active
Activity [35]: inactive
Activity [36]: Active
Activity [37]: Active
Activity [38]: Active
Activity [39]: Active
Activity [40]: Active
Activity [41]: inactive
Activity [42]: Active
Activity [43]: Active
Activity [44]: inactive
Activity [45]: Active
inhibition [46]: Active
Activity [47]: Active
Activity [48]: 40%
Activity [49]: Active
Activity [50]: Active
Activity [2]: Dose-dependent effect
Activity [51]: Active
Activity [52]: Active
Activity [53]: Active
Activity [54]: Active
Activity [55]: Active
Activity [56]: Active
Activity [57]: Active
inhibition [58]: Active
Activity [59]: Active
Activity [60]: Active
Activity [61]: Active
Activity [62]: Active
Activity [63]: Active
inhibition [64]: Active
Activity [65]: Active
Activity [66]: Active

O=C(NC1CCCC1)c1cc(-c2ccco2)on1
Activity [3]: Dose-dependent effect
Activity [2]: Dose-dependent effect
